# In PMC7765401, “Antiproliferative and Antiangiogenic Properties of New VEGFR-2-targeting 2-thioxobenzo[g]quinazoline Derivatives (In Vitro)” (Molecules, 2020):
# “And” between values parts separate entries of the source, which are not always exact repeats. Equal entries are not always repeated. Where two headings read alike, the source gives them in different places.
# Key:
# [1] = test system: MCF-7 human cancer-cell line; assay: MTT antiproliferative assay, MCF-7; type: cell-based
# Description: (§1) Selected compounds were evaluated in vitro for their antiproliferative activities against HepG2 and MCF-7 human cancer-cell lines using MTT assays. Cell viabilities and IC50 values were obtained and compared with those of the control, doxorubicin (Table 1).
# (§2) The antiproliferative activity of the test compounds against HepG2, and MCF-7 human cancer-cell lines were evaluated by MTT assay. The detailed methodology procedure was reported. […]
# [2] = test system: HepG2 human cancer-cell line; assay: MTT antiproliferative assay, HepG2; type: cell-based
# Description: as §1, §2
# MCF-7 cells [3] = assay: Apoptosis by annexin-V FITC/PI double staining, MCF-7; type: cell-based, human; conditions: MCF-7, 48 h at the IC50 of the compound
# Description: (§3) Apoptosis was detected for both HepG2 and MCF-7cells using the same preparation and sample treatment conditions as those used for cell-cycle analysis. The manufacturer’s instructions for the annexin-V FITC apoptosis detection kit (K101, Biovision, Milpitas, CA, USA) were followed. In brief, treated cells were detached after 48 h by trypsinization, washed twice with cold PBS, and stained with 5 μL of annexin-V fluorescein isothiocyanate (annexin-V FITC) and 5 μL of PI in the binding buffer for 15 min at 37 °C. Finally, the processed cells were analyzed using a FACS Caliber flow cytometer (BD Biosciences and Co., Franklin Lakes, NJ, USA).
# MCF-7 cells [4] = assay: Cell-cycle analysis by flow cytometry (PI), MCF-7; type: cell-based, human; conditions: MCF-7, 48 h at the IC50 of the compound
# Description: (§4) To investigate whether the tested compounds could arrest HepG2 and MCF-7 mitotic cell division, cell distributions at cell-cycle phases were analyzed by flow cytometry following their treatment with the vehicle or the indicated compound at its IC50 concentration. Cells and samples were prepared as previously reported, and a PI (ab139418) Flow Cytometry Kit (Abcam, Cambridge, UK) was used in accordance with the manufacturer’s protocol. In brief, both HepG2 and MCF-7 cells were separate, plated into six-well plates at a density of 0.6 × 10^6 cells/well in DMEM growth medium supplemented with 10% FBS. Cells were incubated for 24 h at 37 °C and 5% CO2 prior to exposure to either the vehicle (DMSO) as the control or 13, 14, or 15, at their IC50 concentrations. […] All cells were incubated for 48 h, washed with cold PBS after being harvested to single-cell suspensions by trypsinization, and fixed with 70% ethanol. The fixed cells were rehydrated in PBS prior to being lysed in a prepared solution of PI, Triton X-100, and RNase. Finally, the cells were kept at 37 °C for 15 min and analyzed using a FACS Caliber flow cytometer (BD Biosciences and Co., Franklin Lakes, NJ, USA).
# VEGFR-2 (KDR) = biological target: T1, VEGFR-2 (KDR) (Homo sapiens, UniProt P35968); assay: In vitro inhibition of VEGFR-2 (KDR) kinase assay kit; type: biochemical; conditions: for Fold Relative to Sorafenib: VEGFR-2 IC50 relative to sorafenib; for IC50: luminescence kinase kit, 0.0–10.0 μM range, read-out: IC50 nM, VEGFR-2 enzyme
# T1 construct: purchased Cat. #40325
# T1 sequence (P35968 20-1356): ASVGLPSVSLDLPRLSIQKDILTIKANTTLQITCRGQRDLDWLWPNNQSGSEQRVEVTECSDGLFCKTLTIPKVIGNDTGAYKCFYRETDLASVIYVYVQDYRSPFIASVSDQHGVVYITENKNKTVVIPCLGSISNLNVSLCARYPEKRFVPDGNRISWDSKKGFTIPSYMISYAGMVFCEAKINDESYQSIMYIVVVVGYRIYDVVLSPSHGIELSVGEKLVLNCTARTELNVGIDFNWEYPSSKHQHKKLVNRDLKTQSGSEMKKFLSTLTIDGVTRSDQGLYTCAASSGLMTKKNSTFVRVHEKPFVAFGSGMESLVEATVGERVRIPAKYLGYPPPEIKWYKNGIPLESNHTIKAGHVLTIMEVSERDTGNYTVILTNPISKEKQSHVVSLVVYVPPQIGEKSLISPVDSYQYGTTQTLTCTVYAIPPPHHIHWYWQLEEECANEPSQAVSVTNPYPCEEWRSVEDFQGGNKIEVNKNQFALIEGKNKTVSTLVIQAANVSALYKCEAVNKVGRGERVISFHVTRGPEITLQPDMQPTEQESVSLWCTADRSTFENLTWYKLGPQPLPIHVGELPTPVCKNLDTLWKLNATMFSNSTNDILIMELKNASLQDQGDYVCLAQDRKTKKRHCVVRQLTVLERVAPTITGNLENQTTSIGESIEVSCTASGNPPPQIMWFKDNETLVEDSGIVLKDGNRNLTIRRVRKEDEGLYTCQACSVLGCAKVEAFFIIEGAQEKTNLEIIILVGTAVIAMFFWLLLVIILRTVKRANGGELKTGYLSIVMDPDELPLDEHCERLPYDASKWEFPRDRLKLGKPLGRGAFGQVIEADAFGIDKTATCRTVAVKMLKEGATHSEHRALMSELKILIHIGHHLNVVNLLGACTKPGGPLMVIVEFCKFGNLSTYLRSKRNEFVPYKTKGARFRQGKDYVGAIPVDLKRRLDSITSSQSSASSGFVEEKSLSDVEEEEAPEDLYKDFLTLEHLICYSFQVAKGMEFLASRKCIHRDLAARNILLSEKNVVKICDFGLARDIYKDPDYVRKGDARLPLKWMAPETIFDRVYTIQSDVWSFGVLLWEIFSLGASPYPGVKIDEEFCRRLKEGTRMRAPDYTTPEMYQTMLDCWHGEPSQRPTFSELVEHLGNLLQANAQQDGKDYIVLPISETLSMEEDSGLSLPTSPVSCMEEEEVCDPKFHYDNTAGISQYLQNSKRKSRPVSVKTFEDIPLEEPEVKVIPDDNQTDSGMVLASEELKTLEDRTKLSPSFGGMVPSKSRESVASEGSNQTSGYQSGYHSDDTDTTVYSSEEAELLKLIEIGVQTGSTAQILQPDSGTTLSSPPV
# Description: At the indicated end of the experiment, the luminescence was measured by a Tecan spark microplate reader.
# HepG2 cells [5] = assay: Apoptosis by annexin-V FITC/PI double staining, HepG2; type: cell-based, human; conditions: HepG2, 48 h at the IC50 of the compound
# Description: as §3
# HepG2 cells [6] = assay: Cell-cycle analysis by flow cytometry (PI), HepG2; type: cell-based, human; conditions: HepG2, 48 h at the IC50 of the compound
# Description: as §4
# [7] = MCF7, MTT, 48 h of exposure, read-out: IC50 (μM) ± SD MCF-7
# [8] = MCF7, Table S5, read-out: pIC50 (exp) MCF7 (converted)
# [9] = MTT, 48 h of exposure, read-out: IC50 (μM) ± SD HepG2
# [10] = Table S5, read-out: pIC50(exp) HepG2 (converted)
SMILES,"IC50 [1, 7]","IC50 [1, 8]","IC50 [2, 9]","IC50 [2, 10]",melting point,also measured
"Cn1c(=S)[nH]c2cc3ccccc3cc2c1=O [Compound 1, 3-Methyl-2-thioxo-2,3-dihydrobenzo[g]quinazolin-4(1H)-one]",10.7 ± 1.1 µM,10.7 µM,40.4 ± 4.1 µM,40.4 µM,–,–
"CCn1c(=S)[nH]c2cc3ccccc3cc2c1=O [Compound 2, 3-Ethyl-2-thioxo-2,3-dihydrobenzo[g]quinazolin-4(1H)-one]",10.5 ± 0.5 µM,10.5 µM,36.1 ± 3.6 µM,36.1 µM,–,–
"CCSc1nc2cc3ccccc3cc2c(=O)n1C [Compound 3, 2-(Ethylthio)-3-methylbenzo[g]quinazolin-4(3H)-one]",10.1 ± 0.7 µM,10.1 µM,29.9 ± 2.5 µM,29.9 µM,115 to 117 °C,–
"Cn1c(SCc2ccccc2)nc2cc3ccccc3cc2c1=O [Compound 4, 2-(Benzylthio)-3-methylbenzo[g]quinazolin-4(3H)-one]",10.2 ± 1.1 µM,10.2 µM,34.8 ± 3.1 µM,34.8 µM,150 to 152 °C,–
"Cc1cccc(CSc2nc3cc4ccccc4cc3c(=O)n2C)c1 [Compound 5, 3-Methyl-2-((3-methylbenzyl)thio)benzo[g]quinazolin-4(3H)-one]",10.6 ± 0.7 µM,10.6 µM,31.3 ± 3.1 µM,31.3 µM,155 to 157 °C,–
"Cn1c(SCc2ccc(Cl)cc2)nc2cc3ccccc3cc2c1=O [Compound 6, 2-((4-Chlorobenzyl)thio)-3-methylbenzo[g]quinazolin-4(3H)-one]",10.7 ± 1.1 µM,10.7 µM,28.8 ± 2.6 µM,28.8 µM,190 to 192 °C,–
"Cn1c(SCc2ccc(C#N)cc2)nc2cc3ccccc3cc2c1=O [Compound 7, 4-(((3-Methyl-4-oxo-3,4-dihydrobenzo[g]quinazolin-2-yl)thio)methyl)benzonitrile]",9.8 ± 1.2 µM,9.8 µM,36 ± 3.1 µM,36 µM,201 to 203 °C,–
"COc1cccc(CSc2nc3cc4ccccc4cc3c(=O)n2C)c1 [Compound 8, 2-((3-Methoxybenzyl)thio)-3-methylbenzo[g]quinazolin-4(3H)-one]",10.9 ± 0.9 µM,10.9 µM,31.3 ± 3.1 µM,31.3 µM,–,–
"CCSc1nc2cc3ccccc3cc2c(=O)n1CC [Compound 9, 3-Ethyl-2-(ethylthio)benzo[g]quinazolin-4(3H)-one]",10.2 ± 0.6 µM,10.2 µM,31.7 ± 3.1 µM,31.7 µM,107 to 109 °C,–
"CCn1c(SCc2ccccc2)nc2cc3ccccc3cc2c1=O [Compound 10, 2-(Benzylthio)-3-ethylbenzo[g]quinazolin-4(3H)-one]",8.8 ± 0.5 µM,8.79 µM,36.2 ± 3.5 µM,36.2 µM,132 to 134 °C,Apoptosis Early (MCF-7 cells [3]): 4.64%; Apoptosis Late (MCF-7 cells [3]): 17.03%; Apoptosis Total (MCF-7 cells [3]): 21.67%; Necrosis (MCF-7 cells [3]): 9.61%; Cell Cycle Distribution %G0/G1 (MCF-7 cells [4]): 39.28%; Cell Cycle Distribution %G2/M (MCF-7 cells [4]): 34.6% and 34.55%; Cell Cycle Distribution %S (MCF-7 cells [4]): 26.17%; Fold Relative to Sorafenib (VEGFR-2 (KDR)): 4.5 fold; IC50 (VEGFR-2 (KDR)): 134 ± 8.2 nM
"CCn1c(SCc2cccc(C#N)c2)nc2cc3ccccc3cc2c1=O [Compound 11, 3-(((3-Ethyl-4-oxo-3,4-dihydrobenzo[g]quinazolin-2-yl)thio)methyl)benzonitrile]",10.6 ± 1.1 µM,10.6 µM,34.2 ± 2.9 µM,34.2 µM,140 to 142 °C,–
"CCn1c(SCc2cccc(C)c2)nc2cc3ccccc3cc2c1=O [Compound 12, 3-Ethyl-2-((3-methylbenzyl)thio)benzo[g]quinazolin-4(3H)-one]",11.2 ± 0.9 µM,11.2 µM,30.7 ± 3.1 µM,30.7 µM,186 to 188 °C,–
"CCn1c(SCc2cccc(OC)c2)nc2cc3ccccc3cc2c1=O [Compound 13, 3-Ethyl-2-((3-methoxybenzyl)thio)benzo[g]quinazolin-4(3H)-one]",10.1 ± 1.1 µM,10.1 µM,27.5 ± 2.1 µM,27.5 µM,–,Apoptosis Early (MCF-7 cells [3]): 7.28%; Apoptosis Late (MCF-7 cells [3]): 14.94%; Apoptosis Total (MCF-7 cells [3]): 22.22%; Necrosis (MCF-7 cells [3]): 15% and 15.31%; Apoptosis Early (HepG2 cells [5]): 2.82%; Apoptosis Late (HepG2 cells [5]): 18.56%; Apoptosis Total (HepG2 cells [5]): 21.38%; Necrosis (HepG2 cells [5]): 5.74%; Cell Cycle Distribution %G2/M (MCF-7 cells [4]): 4.36%; Cell Cycle Distribution %S (MCF-7 cells [4]): 33.25%; Fold Relative to Sorafenib (VEGFR-2 (KDR)): 1.5 fold; IC50 (VEGFR-2 (KDR)): 46.6 ± 2.8 nM; Cell Cycle Distribution %G0/G1 (HepG2 cells [6]): 38.22%; Cell Cycle Distribution %G2/M (HepG2 cells [6]): 6.52%; Cell Cycle Distribution %S (HepG2 cells [6]): 55.3% and 55.26%
"CCn1c(SCCN2CCCCC2)nc2cc3ccccc3cc2c1=O [Compound 14, 3-Ethyl-2-((2-(piperidin-1-yl)ethyl)thio)benzo[g]quinazolin-4(3H)-one]",9.6 ± 0.5 µM,9.6 µM,27.7 ± 2.5 µM,27.7 µM,190 to 192 °C,Apoptosis Early (MCF-7 cells [3]): 5.08%; Apoptosis Late (MCF-7 cells [3]): 25.68%; Apoptosis Total (MCF-7 cells [3]): 30.76%; Necrosis (MCF-7 cells [3]): 11.75%; Apoptosis Early (HepG2 cells [5]): 2.97%; Apoptosis Late (HepG2 cells [5]): 13.42%; Apoptosis Total (HepG2 cells [5]): 16.39%; Necrosis (HepG2 cells [5]): 6.33%; Cell Cycle Distribution %G0/G1 (MCF-7 cells [4]): 66.24%; Cell Cycle Distribution %G2/M (MCF-7 cells [4]): 6.58%; Cell Cycle Distribution %S (MCF-7 cells [4]): 27.18%; Fold Relative to Sorafenib (VEGFR-2 (KDR)): 2.0 fold; IC50 (VEGFR-2 (KDR)): 63 ± 3.9 nM; Cell Cycle Distribution %G0/G1 (HepG2 cells [6]): 38.66%; Cell Cycle Distribution %G2/M (HepG2 cells [6]): 9.03%; Cell Cycle Distribution %S (HepG2 cells [6]): 52.3% and 52.31%
"CCn1c(SCCCN2C(=O)c3ccccc3C2=O)nc2cc3ccccc3cc2c1=O [Compound 15, 2-(3-((3-Ethyl-4-oxo-3,4-dihydrobenzo[g]quinazolin-2-yl)thio)propyl)isoindoline-1,3-dione]",9.4 ± 0.7 µM,9.4 µM,26 ± 2.5 µM,28 µM,–,Apoptosis Early (MCF-7 cells [3]): 5.57%; Apoptosis Late (MCF-7 cells [3]): 19.73%; Apoptosis Total (MCF-7 cells [3]): 25.3%; Necrosis (MCF-7 cells [3]): 8.14%; Apoptosis Early (HepG2 cells [5]): 3.44%; Apoptosis Late (HepG2 cells [5]): 14.4%; Apoptosis Total (HepG2 cells [5]): 17.84%; Necrosis (HepG2 cells [5]): 6.27%; Cell Cycle Distribution %G0/G1 (MCF-7 cells [4]): 43.25%; Cell Cycle Distribution %G2/M (MCF-7 cells [4]): 28.0% and 28.03%; Cell Cycle Distribution %S (MCF-7 cells [4]): 28.72%; Fold Relative to Sorafenib (VEGFR-2 (KDR)): 1.4 fold; IC50 (VEGFR-2 (KDR)): 44.4 ± 2.6 nM; Cell Cycle Distribution %G0/G1 (HepG2 cells [6]): 31.15%; Cell Cycle Distribution %G2/M (HepG2 cells [6]): 39.2% and 39.24%; Cell Cycle Distribution %S (HepG2 cells [6]): 29.61%
Cn1c(NN)nc2cc3ccccc3cc2c1=O [Compound 16],10.4 ± 1.1 µM,10.4 µM,28.9 ± 2.3 µM,28.9 µM,–,–
CCn1c(NN)nc2cc3ccccc3cc2c1=O [Compound 17],10.1 ± 0.7 µM,10.1 µM,29.8 ± 2.1 µM,29.8 µM,–,–
"COc1cccc2c1C(=O)c1c(O)c3c(c(O)c1C2=O)C[C@@](O)(C(=O)CO)C[C@@H]3O[C@H]1C[C@H](N)[C@H](O)[C@H](C)O1 [Doxorubicin, reference compound]",10.3 ± 0.8 µM,–,28.5 ± 1.9 µM,–,–,–
